Data from ChEMBL document CHEMBL6074678, “Selectively Antagonizing the NOD1-Mediated Inflammatory Signaling Pathway Mitigates the Gastric Inflammation Induced by Helicobacter pylori Infection” (J Med Chem, 2024).

Columns and labels:
[1] = target: T1, Nucleotide-binding oligomerization domain-containing protein 1 (Homo sapiens, UniProt Q9Y239); assay: Antagonist activity at human NOD1 expressed in HEK-Blue cells assessed as decrease in SEAP secretion incubated for 3 hrs followed by C12-iE-DAP stimulation for 20 hrs by spectrophotometry; format: cell-based, HEK-Blue hNOD1
T1 sequence (Q9Y239 whole entry): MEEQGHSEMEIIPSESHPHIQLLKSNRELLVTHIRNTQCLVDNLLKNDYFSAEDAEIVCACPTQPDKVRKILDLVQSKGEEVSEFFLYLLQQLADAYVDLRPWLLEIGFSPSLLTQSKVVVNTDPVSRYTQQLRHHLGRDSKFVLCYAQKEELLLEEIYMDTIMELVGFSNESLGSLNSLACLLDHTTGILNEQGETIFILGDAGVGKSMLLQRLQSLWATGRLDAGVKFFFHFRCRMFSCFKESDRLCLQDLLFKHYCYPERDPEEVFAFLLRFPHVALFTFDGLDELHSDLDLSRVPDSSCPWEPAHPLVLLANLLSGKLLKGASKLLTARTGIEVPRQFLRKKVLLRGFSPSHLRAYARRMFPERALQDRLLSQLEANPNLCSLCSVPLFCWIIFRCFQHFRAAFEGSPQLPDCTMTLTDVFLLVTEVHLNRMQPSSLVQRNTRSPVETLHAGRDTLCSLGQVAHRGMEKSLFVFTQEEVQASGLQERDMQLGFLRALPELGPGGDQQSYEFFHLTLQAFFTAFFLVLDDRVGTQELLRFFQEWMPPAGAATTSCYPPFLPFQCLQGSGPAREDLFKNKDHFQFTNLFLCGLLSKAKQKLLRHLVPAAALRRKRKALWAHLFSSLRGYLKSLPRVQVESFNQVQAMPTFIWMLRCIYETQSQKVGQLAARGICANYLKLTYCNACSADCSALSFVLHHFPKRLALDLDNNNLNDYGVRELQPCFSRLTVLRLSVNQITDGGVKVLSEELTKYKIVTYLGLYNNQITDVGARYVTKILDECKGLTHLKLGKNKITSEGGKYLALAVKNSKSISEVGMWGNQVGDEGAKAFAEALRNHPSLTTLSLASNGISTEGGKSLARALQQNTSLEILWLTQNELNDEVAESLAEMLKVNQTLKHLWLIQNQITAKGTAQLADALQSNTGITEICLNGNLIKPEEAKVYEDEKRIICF

[2] = target: T2, Nucleotide-binding oligomerization domain-containing protein 2 (Mus musculus) (UniProt Q8K3Z0); assay: Inhibition of mouse NOD2 at 1 uM relative to control
T2 sequence (whole entry): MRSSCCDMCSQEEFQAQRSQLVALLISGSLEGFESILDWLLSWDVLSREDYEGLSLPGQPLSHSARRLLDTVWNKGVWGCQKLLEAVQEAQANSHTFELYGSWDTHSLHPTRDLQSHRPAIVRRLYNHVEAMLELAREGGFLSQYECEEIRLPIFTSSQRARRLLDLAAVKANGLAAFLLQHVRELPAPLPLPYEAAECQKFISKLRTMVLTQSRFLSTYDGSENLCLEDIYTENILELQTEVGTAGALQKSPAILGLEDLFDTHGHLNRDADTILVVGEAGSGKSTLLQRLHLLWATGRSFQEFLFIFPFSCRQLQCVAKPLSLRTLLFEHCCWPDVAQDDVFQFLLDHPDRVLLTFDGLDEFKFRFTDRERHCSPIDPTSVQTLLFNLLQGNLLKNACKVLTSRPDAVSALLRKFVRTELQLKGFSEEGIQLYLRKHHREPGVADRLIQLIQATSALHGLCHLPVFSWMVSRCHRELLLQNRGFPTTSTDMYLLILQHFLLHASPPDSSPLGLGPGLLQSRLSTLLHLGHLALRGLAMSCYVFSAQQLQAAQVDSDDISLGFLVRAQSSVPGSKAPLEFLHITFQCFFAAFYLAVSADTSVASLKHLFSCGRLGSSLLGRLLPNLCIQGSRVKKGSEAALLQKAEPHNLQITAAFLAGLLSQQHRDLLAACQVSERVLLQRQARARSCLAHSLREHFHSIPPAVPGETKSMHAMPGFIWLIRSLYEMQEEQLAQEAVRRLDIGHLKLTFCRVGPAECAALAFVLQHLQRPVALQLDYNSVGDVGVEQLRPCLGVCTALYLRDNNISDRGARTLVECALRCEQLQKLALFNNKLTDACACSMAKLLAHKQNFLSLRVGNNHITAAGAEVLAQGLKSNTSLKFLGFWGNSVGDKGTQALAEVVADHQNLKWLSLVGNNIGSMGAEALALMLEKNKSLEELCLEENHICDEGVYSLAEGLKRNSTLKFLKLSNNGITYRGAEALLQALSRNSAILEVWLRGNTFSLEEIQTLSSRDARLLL

[3] = Cytotoxicity against HEK-Blue hNOD1 cells by SRB assay; format: toxicity, cell-based; conditions: human
[4] = Half life in C57BL/6 mouse at 2 mg/kg, iv by LC-MS/MS analysis; format: ADME, organism-based; conditions: in vivo
[5] = Oral bioavailability in C57BL/6 mouse at 20 mg/kg by LC-MS/MS analysis; format: ADME, organism-based; conditions: in vivo
Mus musculus = assay: Anti-inflammatory activity in C57BL/6 mouse model of Helicobacter pylori-induced gastric inflammation assessed as inhibition in gastric keratinocyte chemoattractant level pretreated orally with compound upto 24 hrs followed by infection of Helicobacter pylori measured upto 72 hrs; format: functional, organism-based; conditions: dose 12.5-50 mg/kg, route po, time <= 96.0 hrs
[6] = MRT (infinity) in C57BL/6 mouse at 20 mg/kg, po by LC-MS/MS analysis; format: ADME, organism-based; conditions: in vivo

IC50 [1] [nM] | inhibition [2] [%] | t1/2 [4] [min] | bioavailability [5] [%] | MRT inf [6] [h] | SMILES | Activity [3] | inhibition (Mus musculus)
2.2 | 20.2 |  |  |  | N#Cc1ccc2nc(Cl)n(-c3ccc(Cl)c(NS(=O)(=O)c4c(F)cccc4F)c3)c(=O)c2c1 |  | 
0.9 | < 10 |  |  |  | CS(=O)(=O)c1ccc2nc(Cl)n(-c3ccc(Cl)c(NS(=O)(=O)c4ccc5ncsc5c4)c3)c(=O)c2c1 |  | 
0.8 | 21.9 | 3.9 | 4.77 | 3.22 | CS(=O)(=O)c1ccc2nc(Cl)n(-c3ccc(Cl)c(NS(=O)(=O)c4c(F)cccc4F)c3)c(=O)c2c1 | Non-toxic | Dose-dependent-effect; Exhibited Superior Efficacy Compared To Compound C
